This is an account of results in BindingDB's records for doi:10.1016/S0960-894X(00)80383-2 (1992).

The test in a line: Concentration required to inhibit the enzyme cathepsin.

Where a name gives a salt, the structure may show the parent alone.

With `CCC[C@H](NC(=O)[C@H](Cc1ccc(OC)cc1)NC(=O)CC(C)C)C(=O)N[C@@H](CC1CCCCC1)C(=O)C(F)(F)CN` [(S)-2-[(S)-3-(4-Methoxy-phenyl)-2-(3-methyl-butyrylamino)-propionylamino]-pentanoic acid ((S)-4-amino-1-cyclohexylmethyl-3,3-difluoro-2-oxo-butyl)-amide; hydrochloride], affinity was put at a Ki of 4 µM.
